Experimental data: US11597920B2, “Compositions and methods for enhancing reverse transcriptase activity and/or reducing the inhibition of reverse transcriptase” (BIO-RAD LABORATORIES, INC., priority 2019, dated 2023)

Assays:
Type in all cases: biochemical
[1] = system: thermo-stable RT (e.g., MMLV or engineered MMLV); experiment: RT-qPCR: RT tolerance to heparin (Cq delay of RT products); details: for Heparin tolerance: FIG. 2
Experimental: (§1) An RT reaction buffer was formulated so that the RT reaction can be carried out after being mixed together with thermo-stable RT (e.g., MMLV or engineered MMLV) and RNA templates (e.g., Hela RNA). […] The RT reaction was completed in a T100 Thermo Cycler (Bio-Rad Laboratories Inc. Hercules, Calif.). The RT reaction protocol was as follows: 50° C. 20 min, 95° C. 1 min, and incubation at 4° C.
(§2) After RT reaction, the RT products were used for qPCR reaction using SsoAdvanced Universal SYBR Green Supermix (Bio-Rad Laboratories Inc. Hercules, Calif.). The RT product inputs in qPCR reaction ranged from 10% to 0.1% of qPCR reaction, depending on the expression abundance of target genes. Target gene primers (Table 3) at 250 nM were used. The following protocol of qPCR was used on CFC348 Thermo Cycler (Bio-Rad Laboratories Inc. Hercules, Calif.): 95° C. denaturation for 2 min, 40 cycles of 95° C. 5S denaturation, 60° C. 30S annealing/extension/read.

[2] = system: thermo-stable RT (e.g., MMLV or engineered MMLV); experiment: RT-qPCR: RT tolerance to other inhibitors (ethanol, guanidine hydrochloride); details: 7.5% Ethanol and 50 mM Guanidinum hydrochloride
Experimental: as §1, §2

[3] = system: thermo-stable RT (e.g., MMLV or engineered MMLV); experiment: RT-qPCR: RT tolerance to formalin; details: for qPCR results from the RT products compared with the RT products without formalin: Human GAPDH
Experimental: (§3) An RT reaction buffer was formulated so that the RT reaction can be carried out after being mixed together with thermo-stable RT (e.g., MMLV or engineered MMLV) and RNA templates (e.g., Hela RNA). In a 20 μl RT reaction mix there is 1 u of RT enzyme, 10 u of Rnasin (Rnase inhibitor), nucleotides each at 1.5 mM (e.g., dATP, dCTP, dGTP, dTTP), random hexamer, oligo dT, or gene-specific oligo nucleotides at appropriate concentration (0.5 to 1 uM), 4% glycerol, 0.01% detergent (e.g., Tween 20), with or without RT inhibitors (e.g., Heparin, Ethanol, Guanidine Hydrochloride, Formalin, Tannic acid, etc.) or additives that improve RT reaction efficiency or sensitivity (e.g., PVSA). The RT reaction was completed in a T100 Thermo Cycler (Bio-Rad Laboratories Inc. Hercules, Calif.). The RT reaction protocol was as follows: 50° C. 20 min, 95° C. 1 min, and incubation at 4° C.
as §2, with “annealing/extension/read. After qPCR reaction, Cq values from RT products with and without inhibitors were compared, and usually Cq values were delayed (bigger values) when inhibitors were present. The larger the Cq value relative to no inhibitor RT products, the more inhibition of RT reaction observed.” for “annealing/extension/read.”
(§4) Human GAPDH target gene was detected in the qPCR reaction.

[4] = system: thermo-stable RT (e.g., MMLV or engineered MMLV); experiment: RT-qPCR: RT tolerance to tannic acid
Experimental: as §3
After RT reaction, the RT products were used for qPCR reaction using SsoAdvanced Universal SYBR Green Supermix (Bio-Rad Laboratories Inc. Hercules, Calif.). The RT product inputs in qPCR reaction ranged from 10% to 0.1% of qPCR reaction, depending on the expression abundance of target genes. Target gene primers (Table 3) at 250 nM were used. […] 30S annealing/extension/read. […]
as §4

Question: `N.N.O=S(=O)(O)O` [(NH4)2SO4] was tested. Which Heparin tolerance [1] did it give?
Answer: also improves Heparin tolerance though not as effect as K-Glu

Question: What about the “tolerance to other inhibitors” value [2] of the same compound?
Answer: compromises Ethanol and GC tolerance

Question: Which “qPCR results from the RT products compared with the RT products without formalin” value ([3]; Formalin 0.125% in RT reaction) does the source give for `C=O` [Formalin] here?
Answer: significantly delayed

Question: What about the Cq delay ([3]; formalin in RT reaction, without His-HCl) of the same compound?
Answer: about 4

Question: Which results are given for `Cl.N[C@@H](Cc1c[nH]cn1)C(=O)O.O` [His-HCl, histidine hydrochloride monohydrate]?
Answer: qPCR results from the RT products compared with the RT products without formalin ([3]; Formalin 0.125% plus 15 to 20 mM His-HCl): did not show a lot delay; Cq delay ([3]; formalin with 15 to 20 mM His-HCl present): less than 1

Question: `N[C@@H](CCC(=O)[O-])C(=O)[O-].[K+].[K+]` [K-Glu, Potassium Glutamate] was tested. Which Heparin tolerance [1] did it give?
Answer: improves Heparin tolerance

Question: What about the Cq delay ([1]; Heparin 0.003 U/μl with 100 mM K-Glu present) of the same compound?
Answer: less than 1

Question: And the “qPCR from the RT products compared with the RT products without heparin” value ([1]; Heparin 0.0034 u/μl plus 100 mM potassium Glutamate in RT reaction)?
Answer: did not show much delay

Question: And the “tolerance to other inhibitors” value [2]?
Answer: without compromising tolerance

Question: For `O=C(OC[C@H]1O[C@@H](OC(=O)c2cc(O)c(O)c(OC(=O)c3cc(O)c(O)c(O)c3)c2)[C@H](OC(=O)c2cc(O)c(O)c(OC(=O)c3cc(O)c(O)c(O)c3)c2)[C@@H](OC(=O)c2cc(O)c(O)c(OC(=O)c3cc(O)c(O)c(O)c3)c2)[C@@H]1OC(=O)c1cc(O)c(O)c(OC(=O)c2cc(O)c(O)c(O)c2)c1)c1cc(O)c(O)c(OC(=O)c2cc(O)c(O)c(O)c2)c1` [Tannic acid], which Cq delay ([4]; Tannic acid 0.1 μg/μl in the RT reaction, no Poloxamer) is on record?
Answer: over 13

Question: What about the “qPCR results from the RT products compared with the RT products without tannic acid” value ([4]; tannic acid 0.1 μg/μl, Human GAPDH) of the same compound?
Answer: greatly delayed

Question: Which “efficiency of the amplification reaction as compared to a control lacking histidine” value ([3]; reaction mixtures containing formalin) does the source give for `N[C@@H](Cc1c[nH]cn1)C(=O)O` [histidine] here?
Answer: improved the efficiency

Question: Which Cq delay ([1]; Heparin 0.003 U/μl in the RT reaction, no K-Glu) does the source give for Heparin here?
Answer: over 7

Question: What about the “qPCR from the RT products compared with the RT products without heparin” value ([1]; Heparin 0.0034 u/μl in RT reaction, GAPDH and 18S) of the same compound?
Answer: greatly delayed
